Data set [1] can be described thus: Cytotoxicity determination in HepG2.2.15 cells (CCK-8 assay). The conditions noted are these: human, 6 days treatment, CCK-8, highest concentration 100 uM. In kind it is cell-based. The gist of the method:
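HepG2.2.15 cells (5,000/well, 2% FBS medium) were treated for 6 days, with medium and compound refreshed at day 3. Dosing was an 8-point 1:3 series from 100 uM, in triplicate. Viability was measured by CCK-8 after 2.5 h at 37 °C (A450, 630 nm reference), and CC50 was calculated.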
(In general: Tetrazolium assays rely on reduction of a dye to a coloured formazan, in cell work by metabolically active cells.)

Data set [2] relates to human hepatocytes. Description: Metabolic stability of test compound in human hepatocyte cell. In kind it is in vitro ADME. The note with it: comparing with reference 1 and reference 2. In short, it runs like this: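 Compounds at 1.0 μM were incubated at 37 °C with cryopreserved human hepatocytes (1×10^6 viable cells/mL) and sampled from 0 to 120 min into cold acetonitrile, then analysed by LC-MS/MS. Half-life came from regression of parent disappearance over time. It was converted to CLint (μL/min/10^6 cells) and to scaled liver CLint (mL/min/kg).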

Here are results for one molecule from US20230165865A1, “HETEROARYLDIHYDROPYRIMIDINE DERIVATIVES AND METHODS OF TREATING HEPATITIS B INFECTIONS” (Janssen Pharmaceutica NV, priority 2018, published 2023).

A word on the CC50: it is the concentration at which the toxic effect on the cells reaches its halfway point. Take `CCOC(=O)C1=C(CN2CCN3C(=S)N(CC(C)(C)C(=O)O)CC3C2)NC(c2nccs2)=N[C@H]1c1cccc(F)c1C` (single isomer, unassigned) [Compound 1A]: the midpoint of cytotoxicity in data set [1], the CC50 at 6 days, lay at 22.5 µM. Further, in data set [2], the “metabolic stability in human hepatocyte cells, in words” value is reported as “improved metabolic stability”.
